Marks after values point to notes of the source that are not given here.
Assays:
[1] = target: T1, Recombinant Rho kinase (fused protein composed of bovine Rho kinase catalytic region and glutathione S-transferase) (Bos taurus, UniProt Q28021); assay: Rho kinase inhibitory activity (phosphorylation of S6 231-239 substrate with γ32P-ATP); assay type: biochemical; settings: concentration inhibiting substrate phosphorylation by 50%
T1 construct: fused protein composed of bovine Rho kinase catalytic region and glutathione S-transferase; glutathione S-transferase (GST); made in house; host or cells: insect cells infected with baculovirus
T1 sequence (Q28021 92-354 limits assumed): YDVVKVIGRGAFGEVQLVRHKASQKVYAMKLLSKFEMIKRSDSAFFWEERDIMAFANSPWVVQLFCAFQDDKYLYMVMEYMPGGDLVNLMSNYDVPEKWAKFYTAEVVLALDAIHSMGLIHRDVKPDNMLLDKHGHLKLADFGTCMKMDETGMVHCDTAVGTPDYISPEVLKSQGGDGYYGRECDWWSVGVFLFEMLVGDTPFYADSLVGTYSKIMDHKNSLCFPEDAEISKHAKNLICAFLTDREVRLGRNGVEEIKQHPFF
Protocol: This permits the substrate to be labeled with the radioisotope.
Thereafter, the substrate was adsorbed to a filter paper. ATP was washed away with a phosphoric acid solution, and the amount of the phosphorylated substrate was then measured with a liquid scintillation counter.

[2] = system: Mouse-derived CCR2 overexpressing human-derived histiocyte lymphoma (U937/CCR2); assay: Leukocyte migration inhibitory activity (MCP-1 induced migration, CHEMOTAXICELL); assay type: cell-based; settings: U-937, test compound concentration 10 μg/ml, MCP-1 ligand, migration 1 hr
Protocol: Mouse-derived CCR2 overexpressing human-derived histiocyte lymphoma (U937/CCR2), was suspended in a 0.1% BSA-containing RPMI 1640 medium, to which a test compound had been added (5×10^6/ml), and the suspension was incubated for 20 min. A chemical solution (500 μl) (0.1% BSA-containing RPMI 1640 medium DMSO 1%), to which an MCP-1 ligand (1 μM) and the test compound had been added, was added to a 24-well plate. CHEMOTAXICELL was put thereon, and 200 μl of the cell suspension was added to the top layer, followed by migration under a 5% CO2 atmosphere at 37° C. for one hr. The number of cells, which had migrated to the lower chamber, was counted with a particle count analyzer (CDA-500, SYSMEX CORPORATION), and the percentage migration inhibition was calculated by the following equation: Migration inhibition (%)=(1−number of migrated cells in the presence of test compound/number of migrated cells in the absence of test compound)×100

Rho kinase = target: T2, Rho kinase (Bos taurus, UniProt Q28021); assay: Ex vivo experiment: Rho kinase inhibition by serum of orally dosed SD rats; assay type: in vivo, rat; settings: hydrochloride 30 mg/kg oral, SD rats (N=4), serum diluted 8 times
T2 construct: fused protein composed of bovine Rho kinase catalytic region and glutathione S-transferase; glutathione S-transferase (GST); made in house; host or cells: insect cells infected with baculovirus
T2 sequence (Q28021 6-553 limits assumed): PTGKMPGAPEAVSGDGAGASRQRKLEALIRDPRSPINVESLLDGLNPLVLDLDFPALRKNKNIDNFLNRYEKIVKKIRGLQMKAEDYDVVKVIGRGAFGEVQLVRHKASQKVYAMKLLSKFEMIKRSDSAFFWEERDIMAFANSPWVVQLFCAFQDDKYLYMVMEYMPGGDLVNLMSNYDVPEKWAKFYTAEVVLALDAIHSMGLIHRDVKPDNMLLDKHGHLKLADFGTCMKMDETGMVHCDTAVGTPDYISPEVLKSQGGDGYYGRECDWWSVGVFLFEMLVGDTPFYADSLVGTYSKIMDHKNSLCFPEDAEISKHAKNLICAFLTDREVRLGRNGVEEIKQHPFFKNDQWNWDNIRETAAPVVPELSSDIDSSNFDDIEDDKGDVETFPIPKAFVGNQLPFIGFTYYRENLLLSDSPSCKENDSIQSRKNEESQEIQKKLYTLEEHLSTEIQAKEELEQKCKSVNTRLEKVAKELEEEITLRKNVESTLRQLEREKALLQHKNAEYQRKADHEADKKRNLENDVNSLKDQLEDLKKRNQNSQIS
Protocol: Water or a solution of a hydrochloride salt of a test compound (30 mg/kg) in physiological saline was orally administered to SD rats (N=4). […] The serum was diluted 8 times with physiological saline and was added to Rho kinase, substrate, and labeled ATP according to the method described in Pharmacological Test Example 1, and the amount of the phosphorylated substrate was determined. Rho kinase inhibition was calculated according to the following equation: Inhibition (%)=(1−amount of substrate in the case of test compound administration/amount of substrate in the case of water administration)×100

[3] = system: anti-GBM nephritis model using WKY rats; assay: Proteinuria amelioration activity for anti-GBM nephritis model using WKY rats; assay type: in vivo, rat; settings: mean ± standard error, 6 rats; for Number of cells (ED-1 positive cells per glomerulus): hydrochloride 30 mg/kg oral twice a day, kidney four days after antibody
Protocol: An anti-GBM antibody produced by immunizing domestic rabbits with a rat-derived GBM fraction was caudointravenously administered to WKY male rats of 8 weeks old to induce nephritis. For 3 days from the time 24 hr after the administration of the antibody, a solution of each of the hydrochlorides prepared in Examples 45 and 46 in purified water was orally administered at a dose of 30 mg/kg twice a day. Three days after the administration of the antibody, twenty-four-hours urine was collected to determine the protein level of urine.
Four days after the administration of the antibody, the rats were sacrificed by exsanguination, and the kidney was then harvested and was fixed in 4% paraformaldehyde to prepare a specimen for staining. Next, the specimen thus obtained was immunostained using a mouse-anti-rat macrophage monoclonal antibody (ED-1). The number of ED-1 positive cells per glomerulus was counted.
Likewise, an anti-GBM antibody was caudointravenously administered to WKY male rats of 7 weeks old to induce nephritis. For 4 weeks from the time 24 hr after the administration of the antibody, a solution of the hydrochloride prepared in each of Examples 45 and 46 in purified water was orally administered at a dose of 30 mg/kg twice a day. Four weeks after the administration of the antibody, twenty-four-hours urine was collected to determine the protein level of urine.

[4] = system: Spontaneously hypertensive male rats (SHR); assay: Blood pressure depression activity in spontaneously hypertensive rats; assay type: in vivo, rat; settings: hydrochloride 30 mg/kg oral; systolic pressure 3 to 4 hr after administration; ± standard error, four SHRs
Protocol: Spontaneously hypertensive male rats (SHR, Charles River Japan, Inc.) of 15 weeks old were provided. A solution of a hydrochloride of a compound of Example 45 or 46 (30 mg/kg) in purified water was orally administered to the rats. The systolic pressure of SHR was measured immediately before the administration of the test compound and 3 to 4 hr after the administration of the test compound. The percentage blood pressure depression was calculated by the following equation: Blood pressure depression (%)={(blood pressure before administration of test compound−blood pressure after administration of test compound)/blood pressure before administration of test compound}×100
The blood pressure depression was expressed in terms of the percentage blood pressure depression and the standard error for four SHRs.

[5] = blood collection 4 hr after administration
[6] = hydrochloride 30 mg/kg oral twice a day for 4 weeks, 24-hr urine four weeks after antibody
[7] = hydrochloride 30 mg/kg oral twice a day for 3 days, 24-hr urine three days after antibody

Row | IC50 [1] [nM] | Inhibition (%) (Rho kinase; blood collected 3 hr after administration) | Inhibition (%) (Rho kinase; [5]) | SMILES | inhibition at 10 µg/mL [2] [%] | Protein level of urine [3, 6] | Protein level of urine [3, 7] | Number of cells (ED-1 positive cells per glomerulus) [3] | Blood pressure depression (%) [4] [%]
1 | 280 | 57 | – | Nc1cccc(CN2CCC(Nc3cccc4cnccc34)C2)c1 (centres unmarked) [Example 17, N5-[1-(3-Aminobenzyl)tetrahydro-1H-3-pyrrolyl]-5-isoquinolylamine] | 94 | – | – | – | –
2 | 310 | – | 17* % | Nc1cccc(CN2CC[C@H](Nc3cccc4cnccc34)C2)c1 [Example 45, (3S)-N5-[1-(3-Aminobenzyl)tetrahydro-1H-3-pyrrolyl]-5-isoquinolineamine] | 74 | 779.4 ± 133.9 mg/kg, body weight | 91.2 ± 21.5 mg/kg, body weight | 2.20 ± 0.65 | 10.2 ± 3.1
3 | 23 | – | 42* % | Nc1cccc(CN2CC[C@@H](Nc3cccc4cnccc34)C2)c1 [Example 46, (3R)-N5-[1-(3-Aminobenzyl)tetrahydro-1H-3-pyrrolyl]-5-isoquinolineamine] | 104 | 327.6 ± 55.2 mg/kg, body weight | 73.6 ± 9.1 mg/kg, body weight | 1.38 ± 0.68 | 25.1 ± 4.4
